Assay results: patent US20240417374A1, “SMALL MOLECULE ANTAGONIST TO PACAP RECEPTOR AND USES THEREOF” (The University of Vermont and State Agricultural College, priority 2021, published 2024)
“And” between values parts separate entries of the source, which are not always exact repeats. Equal values may be shown once.

Tests used:
[1] = molecular target: T1, PAC1 receptor (Homo sapiens, UniProt P41586); design: expressed in transfected cells; conditions: earlier work, WO/2020/168068; cited from earlier work
T1 sequence (P41586 21-468): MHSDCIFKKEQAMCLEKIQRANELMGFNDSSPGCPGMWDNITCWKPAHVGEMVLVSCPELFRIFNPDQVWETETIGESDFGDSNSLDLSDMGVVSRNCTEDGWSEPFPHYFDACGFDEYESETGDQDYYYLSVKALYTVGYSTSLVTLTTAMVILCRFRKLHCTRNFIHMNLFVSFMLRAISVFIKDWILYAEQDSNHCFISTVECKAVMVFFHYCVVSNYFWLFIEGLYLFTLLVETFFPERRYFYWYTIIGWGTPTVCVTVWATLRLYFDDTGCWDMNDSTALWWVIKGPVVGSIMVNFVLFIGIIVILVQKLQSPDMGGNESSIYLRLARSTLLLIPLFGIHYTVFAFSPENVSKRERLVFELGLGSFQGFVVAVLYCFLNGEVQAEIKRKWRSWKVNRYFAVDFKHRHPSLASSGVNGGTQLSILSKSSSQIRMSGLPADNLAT

[2] = molecular target: T1, PAC1 receptor; design: expressed in transfected cells; conditions: earlier work, WO/2020/168068; cited from earlier work; remark: listed apart in the source
[3] = tested on: PACAP-induced anxiety-related behaviors; conditions: earlier work, WO/2020/168068; cited from earlier work
[4] = molecular target: T1, PAC1 receptor; design: expressed in transfected cells; conditions: earlier work, WO/2020/168068; cited from earlier work; remark: listed apart in the source
[5] = molecular target: T1, PAC1 receptor; assay: Inhibition of 20 nM PACAP-stimulated ERK activation in stable PAC1 receptor HEK cells (Western blot); format: cell-based; design: expressed in transfected cells; conditions: for efficacy and potency in blocking PACAP/PAC1 receptor-stimulated ERK activation, in words: stable human HEK PAC1 receptor cell line, FIGS. 1 and 2
[6] = molecular target: T1, PAC1 receptor; assay: PACAP-induced calcium flux in HEK PAC1R stable cell lines; format: cell-based; design: expressed in transfected cells; conditions: 20 nM PACAP, FIG. 3A, read-out: calculated IC50, attenuation of PACAP-induced calcium flux
[7] = tested on: rats; assay: Elevated plus maze after bilateral BNST infusion, PACAP-induced anxiety-like responses; format: in vivo, rat; conditions: FIG. 3B
Description: FIG. 3 depicts that PAC1 receptor antagonist RJB-145 blocks PACAP-induced signaling and anxiety-like behavioral responses. […] 20 μM RJB-145 blocked PACAP-stimulated ERK activation nearly 75%. Data represent mean +/− SEM; n=3−4 wells/group. […] Anxiety ridden rats avoid the open arms of the maze and prefer traveling into the closed arms. […] Data represent mean +/− SEM; n=8-10 animals/group; **, statistically different from vehicle, RJB145 and PACAP+RJB145 at p<0.01.

[8] = molecular target: T1, PAC1 receptor; assay: PAC1 receptor-stimulated adenylyl cyclase cAMP activation; format: cell-based
[9] = 20 nM PACAP, PAC1 receptor HEK cells, FIG. 2, read-out: apparent IC50, inhibition of PACAP-stimulated ERK activation

## O=C(N/N=C/c1cccc2c1ccn2Cc1cc(F)cc(F)c1)c1ccc(O)c(Cl)c1 [JF-214]
[1]
  PACAP-stimulated PAC1 receptor plasma membrane calcium signaling: blocked
[2]
  PAC1 receptor internalization: blocked
[3]
  blocking PACAP-induced anxiety-related behaviors in vivo: demonstrated efficacy
[4]
  PAC1 receptor endosomal ERK signaling: blocked
  combination with GCGR antagonist MK-0893 to inhibit PACAP/PAC1 receptor mediated ERK activation: acted synergistically
[5]; [9]
  IC50: 5 to 8 µM

## O=C(Nc1ccc(S(=O)(=O)Nc2ccccc2)cc1)c1cc2ccccc2[nH]1 [RJB-88]
[5]; [9]
  IC50: ~25 µM
[5]
  efficacy and potency in blocking PACAP/PAC1 receptor-stimulated ERK activation, in words: appeared less potent

## O=C(Nc1ccc(S(=O)(=O)Nc2cc(F)cc(F)c2)cc1)c1cc2ccccc2[nH]1 [RJB-145]
[6]
  IC50: 8.5 µM
[7]; 20 μM/0.5 μL bilaterally into BNST of rats, 5 min per trial
  behavioral effect on elevated plus maze, compound infused alone: no behavioral effects compared to vehicle
[7]; PACAP+RJB-145 infused bilaterally into BNST of rats
  antagonism of PACAP-induced anxiety-like responses (open arm time) on elevated plus maze: completely antagonize the PACAP-induced anxiety-like responses to control vehicle levels
[8]
  effect on PAC1 receptor-stimulated adenylyl cyclase cAMP activation: without significant effects
[5]; 20 nM PACAP, HEK PAC1R stable cell lines, FIG. 3A, read-out: calculated IC50, attenuation of PACAP-induced ERK activation
  IC50: 9 µM
[5]; [9]
  IC50: ~10 µM and 10 µM
[5]; 20 μM compound, FIG. 3A
  block of PACAP-stimulated ERK activation: ~75%
[5]; 25 μM pretreatment, 20 nM PACAP, FIG. 1
  blocking PACAP/PAC1 receptor stimulated ERK activation (Western blot): demonstrate efficacy
[5]
  efficacy and potency in blocking PACAP/PAC1 receptor-stimulated ERK activation, in words: shows efficacy and potency
